Here are results for 25 compounds from patent publication US10689377B2 (Mirati Therapeutics, Inc., priority 2017, dated 2020).

One may read the IC50 as the point on the concentration scale where inhibition reaches its midpoint.

KRas G12C, sequence (P01116 1-188 isoform P01116-2 G12C): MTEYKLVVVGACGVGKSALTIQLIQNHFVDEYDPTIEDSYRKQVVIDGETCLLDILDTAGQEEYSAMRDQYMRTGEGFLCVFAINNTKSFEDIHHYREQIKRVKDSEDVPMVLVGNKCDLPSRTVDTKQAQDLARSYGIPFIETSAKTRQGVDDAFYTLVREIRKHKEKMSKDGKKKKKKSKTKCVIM

The assay deals with KRas G12C (Homo sapiens, UniProt P01116, G12C). Put plainly: Cellular inhibition of KRas G12C measured by Phospho-ERK in NCI-H358 cells. The assay is classed as cell-based. To be noted: pERK(Thr202/Tyr204) normalized with GAPDH, NCI-H358 cells, 3 hours; read-out: IC50. The gist of the method:
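Following 8-12 h attachment, NCI-H358 cells got serially diluted compound (0.5% DMSO) for 3 hours. Cells were then fixed, permeabilized with cold methanol, and stained for pERK(Thr202/Tyr204) and GAPDH. Ratios were converted to percent of DMSO control, with IC50 obtained by four-parameter regression.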
In the case of `C=CC(=O)N1CCN(c2nc(OC[C@@H]3CCCN3CC)nc3c2CCN(c2cccc4ccccc24)C3)CC1CC#N` (stereo partly drawn) [Example 233, 2-(1-acryloyl-4-(2-(((S)-1-ethylpyrrolidin-2-yl)methoxy)-7-(naphthalen-1-yl)-5,6,7,8-tetrahydropyrido[3,4-d]pyrimidin-4-yl)piperazin-2-yl)acetonitrile], the IC50 lay in the range of 0.1 to 1000 nM.

With `C=CC(=O)N1CCN(c2nc(OC[C@@H]3CCCN3C)nc3c2CCN(c2nncc4ccccc24)C3)C[C@@H]1CC#N` [Example 431, 2-((S)-1-acryloyl-4-(2-(((S)-1-methylpyrrolidin-2-yl)methoxy)-7-(phthalazin-1-yl)-5,6,7,8-tetrahydropyrido[3,4-d]pyrimidin-4-yl)piperazin-2-yl)acetonitrile], the half-inhibitory concentration (IC50) was above 1000 nM.

On to `C=CC(=O)N1CCN(c2nc(OC[C@@H]3CCCN3CCOC)nc3c2CCN(c2cccc4ccccc24)C3)CC1CC#N` (stereo partly drawn) [Example 266, 2-(1-acryloyl-4-(2-(((S)-1-(2-methoxyethyl)pyrrolidin-2-yl)methoxy)-7-(naphthalen-1-yl)-5,6,7,8-tetrahydropyrido[3,4-d]pyrimidin-4-yl)piperazin-2-yl)acetonitrile], for which the half-maximal inhibitory concentration (IC50) was 0.1 to 1000 nM.

`C=CC(=O)N1CCN(c2nc(O[C@H]3CCCN(C)C3)nc3c2CCN(c2cc(O)cc4ccccc24)C3)CC1` [Example 66, (S)-1-(4-(7-(3-hydroxynaphthalen-1-yl)-2-((1-methylpiperidin-3-yl)oxy)-5,6,7,8-tetrahydropyrido[3,4-d]pyrimidin-4-yl)piperazin-1-yl)prop-2-en-1-one]: the IC50 was above 1000 nM.

As for `C=CC(=O)N1CCN(c2nc(OC[C@@H]3CCCN3C)nc3c2CCN(c2cccc4ccccc24)C3)CC1COC` (stereo partly drawn) [Example 256, 1-(2-(methoxymethyl)-4-(2-(((S)-1-methylpyrrolidin-2-yl)methoxy)-7-(naphthalen-1-yl)-5,6,7,8-tetrahydropyrido[3,4-d]pyrimidin-4-yl)piperazin-1-yl)prop-2-en-1-one], the IC50 was above 1000 nM.

For `C=CC(=O)N1CCN(c2nc(O[C@H](C)CN(C)C)nc3c2CCN(c2c(C)ccc(F)c2O)C3)CC1` [Example 87, (R)-1-(4-(2-((1-(dimethylamino)propan-2-yl)oxy)-7-(3-fluoro-2-hydroxy-6-methylphenyl)-5,6,7,8-tetrahydropyrido[3,4-d]pyrimidin-4-yl)piperazin-1-yl)prop-2-en-1-one], the half-maximal inhibitory concentration (IC50) is above 1000 nM.

As to `C=C(F)C(=O)N1CCN(c2nc(OC[C@@H]3CCCN3C)nc3c2CCN(c2cccc4cccc(CC)c24)C3)C[C@@H]1CC#N` [Example 608, 2-[(2S)-4-[7-(8-ethyl-1-naphthyl)-2-[[(2S)-1-methylpyrrolidin-2-yl]methoxy]-6,8-dihydro-5H-pyrido[3,4-d]pyrimidin-4-yl]-1-(2-fluoroprop-2-enoyl)piperazin-2-yl]acetonitrile], the IC50 was in the range of 0.1 to 1000 nM.

With `C=CC(=O)N1CCN(c2nc(OC[C@@H]3CCCN3C)nc3c2CCN(c2cccc4ccc(Cl)cc24)C3)CC1CC#N` (stereo partly drawn) [Example 286, 2-(1-acryloyl-4-(7-(7-chloronaphthalen-1-yl)-2-(((S)-1-methylpyrrolidin-2-yl)methoxy)-5,6,7,8-tetrahydropyrido[3,4-d]pyrimidin-4-yl)piperazin-2-yl)acetonitrile], the IC50 is 0.1 to 1000 nM.

Take `C=CC(=O)N1CCN(c2ncnc3c2CCN(c2cccc4ccccc24)C3)CC1` [Example 3, 1-(4-(7-(naphthalen-1-yl)-5,6,7,8-tetrahydropyrido[3,4-d]pyrimidin-4-yl)piperazin-1-yl)prop-2-en-1-one]: the IC50 was above 1000 nM.

`C=CC(=O)N1CCN(c2nc(OC[C@H]3CCCC(=O)N3)nc3c2CCN(c2cc(O)cc4ccccc24)C3)CC1` (single isomer, unassigned) [Example 62]: the concentration for half-maximal inhibition (IC50) is above 1000 nM.

In the case of `Cc1cccc(N2CCc3c(nc(OC[C@@H]4CCCN4C)nc3N3CCN(C(=O)/C=C/C(F)(F)F)[C@@H](CC#N)C3)C2)c1C` [Example 486, 2-((S)-4-(7-(2,3-dimethylphenyl)-2-(((S)-1-methylpyrrolidin-2-yl)methoxy)-5,6,7,8-tetrahydropyrido[3,4-d]pyrimidin-4-yl)-1-((E)-4,4,4-trifluorobut-2-enoyl)piperazin-2-yl)acetonitrile], the IC50 lay within 0.1 to 1000 nM.

As to `C=CC(=O)N1CCN(c2nc(OC[C@@H]3CCCN3C)nc3c2CCN(c2ccccc2C(F)(F)F)C3)CC1` [Example 159, (S)-1-(4-(2-((1-methylpyrrolidin-2-yl)methoxy)-7-(2-(trifluoromethyl)phenyl)-5,6,7,8-tetrahydropyrido[3,4-d]pyrimidin-4-yl)piperazin-1-yl)prop-2-en-1-one], the IC50 was above 1000 nM.

As to `CN(C)C/C=C/C(=O)N1CCN(c2nc(OC[C@H]3CCCN3C)nc3c2CCN(c2cccc(Cl)c2C(F)(F)F)C3)C[C@@H]1CC#N` [Example 423, 2-((S)-4-(7-(3-chloro-2-(trifluoromethyl)phenyl)-2-(((R)-1-methylpyrrolidin-2-yl)methoxy)-5,6,7,8-tetrahydropyrido[3,4-d]pyrimidin-4-yl)-1-((E)-4-(dimethylamino)but-2-enoyl)piperazin-2-yl)acetonitrile], the IC50 was in the range of 0.1 to 1000 nM.

Take `C=CC(=O)N1CCN(c2nc(N3CCOCC3)nc3c2CCN(c2cc(O)cc4ccccc24)C3)CC1` [Example 118, 1-(4-(7-(3-hydroxynaphthalen-1-yl)-2-morpholino-5,6,7,8-tetrahydropyrido[3,4-d]pyrimidin-4-yl)piperazin-1-yl)prop-2-en-1-one]: the concentration for half-maximal inhibition (IC50) was above 1000 nM.

Take `C=CC(=O)N1CCN(c2nc(OC[C@@H]3CCCN3C)nc3c2CCN(c2c(F)ccc4ccccc24)C3)CC1CC#N` (stereo partly drawn) [Example 311, 2-(1-acryloyl-4-(7-(2-fluoronaphthalen-1-yl)-2-(((S)-1-methylpyrrolidin-2-yl)methoxy)-5,6,7,8-tetrahydropyrido[3,4-d]pyrimidin-4-yl)piperazin-2-yl)acetonitrile]: the IC50 was 0.1 to 1000 nM.

`C=CC(=O)N1CCN(c2nc(O[C@H](C)CN(C)C)nc3c2CCN(c2cc(O)cc4ccccc24)C3)CC1CC#N` (stereo partly drawn) [Example 150, 2-(1-acryloyl-4-(2-(((R)-1-(dimethylamino)propan-2-yl)oxy)-7-(3-hydroxynaphthalen-1-yl)-5,6,7,8-tetrahydropyrido[3,4-d]pyrimidin-4-yl)piperazin-2-yl)acetonitrile]: the IC50 was in the range of 0.1 to 1000 nM.

Regarding `C=CC(=O)N1CCN(c2nc(OC[C@@H]3CCCN3C)nc3c2CCN(c2cccc4ccc(F)cc24)C3)C[C@@H]1CC#N` [Example 333, 2-[(2S)-4-[7-(7-fluoro-1-naphthyl)-2-[[(2S)-1-methylpyrrolidin-2-yl]methoxy]-6,8-dihydro-5H-pyrido[3,4-d]pyrimidin-4-yl]-1-prop-2-enoyl-piperazin-2-yl]acetonitrile], the 50% inhibitory concentration (IC50) fell in the range of 0.1 to 1000 nM.

Turning to `C=CC(=O)N1CCN(c2nc(OC[C@@H]3CCCN3C)nc3c2CCN(c2cccc4cccc(C(F)(F)F)c24)C3)C[C@@H]1CC#N` [Example 434, 2-((S)-1-acryloyl-4-(2-(((S)-1-methylpyrrolidin-2-yl)methoxy)-7-(8-(trifluoromethyl)naphthalen-1-yl)-5,6,7,8-tetrahydropyrido[3,4-d]pyrimidin-4-yl)piperazin-2-yl)acetonitrile], the IC50 fell in the range of 0.1 to 1000 nM.

With `C=CC(=O)N1C[C@H](C)N(c2nc(OC[C@@H]3CCCN3C)nc3c2CCN(c2cccc4ccccc24)C3)C[C@@H]1CC#N` [Example 368, 2-((2S,5S)-1-acryloyl-5-methyl-4-(2-(((S)-1-methylpyrrolidin-2-yl)methoxy)-7-(naphthalen-1-yl)-5,6,7,8-tetrahydropyrido[3,4-d]pyrimidin-4-yl)piperazin-2-yl)acetonitrile], the IC50 is above 1000 nM.

For the compound `C=CC(=O)N1CCN(c2nc(OC[C@@H]3CCCN3C)nc3c2CCN(c2cccc(C)c2C)C3)C[C@@H]1CC#N` [Example 394, 2-((S)-1-acryloyl-4-(7-(2,3-dimethylphenyl)-2-(((S)-1-methylpyrrolidin-2-yl)methoxy)-5,6,7,8-tetrahydropyrido[3,4-d]pyrimidin-4-yl)piperazin-2-yl)acetonitrile], the IC50 fell in the range of 0.1 to 1000 nM.

Regarding `C=CC(=O)N1CCN(c2nc(OC[C@@H]3CCCN3C)nc3c2CCN(c2cccc(Cl)c2C(F)(F)F)C3)C[C@@H]1CC#N` [Example 428, 2-((S)-1-acryloyl-4-(7-(3-chloro-2-(trifluoromethyl)phenyl)-2-(((S)-1-methylpyrrolidin-2-yl)methoxy)-5,6,7,8-tetrahydropyrido[3,4-d]pyrimidin-4-yl)piperazin-2-yl)acetonitrile], the IC50 was 0.1 to 1000 nM.

In the case of `C=CC(=O)N1CCN(c2nc(OC[C@@H]3CCCN3C)nc3c2CCN(c2cnccc2C2CC2)C3)C[C@@H]1CC#N` [Example 352, 2-[(2S)-4-[7-(4-cyclopropyl-3-pyridyl)-2-[[(2S)-1-methylpyrrolidin-2-yl]methoxy]-6,8-dihydro-5H-pyrido[3,4-d]pyrimidin-4-yl]-1-prop-2-enoyl-piperazin-2-yl]acetonitrile], the IC50 was in the range of 0.1 to 1000 nM.

On to `C=CC(=O)N1CCN(c2nc(OC[C@@H]3CCCN3C)nc3c2CCN(c2ccc(F)c4ccccc24)C3)C[C@@H]1CC#N` [Example 316, 2-((S)-1-acryloyl-4-(7-(4-fluoronaphthalen-1-yl)-2-(((S)-1-methylpyrrolidin-2-yl)methoxy)-5,6,7,8-tetrahydropyrido[3,4-d]pyrimidin-4-yl)piperazin-2-yl)acetonitrile], for which the IC50 was 0.1 to 1000 nM.

Consider `C=CC(=O)N1CCN(c2nc(OCC3CCN(CCO)C3)nc3c2CCN(c2cc(O)cc4ccccc24)C3)CC1` (stereo not shown) [Example 141, 1-[4-[2-[[1-(2-hydroxyethyl)pyrrolidin-3-yl]methoxy]-7-(3-hydroxy-1-naphthyl)-6,8-dihydro-5H-pyrido[3,4-d]pyrimidin-4-yl]piperazin-1-yl]prop-2-en-1-one], for which the IC50 was above 1000 nM.

In the case of `C=CC(=O)N1CCN(c2nc(OC(C)CN(C)C)nc3c2CCN(c2cc(O)cc4ccccc24)C3)CC1` (stereo not shown) [Example 11, 1-(4-(2-((1-(dimethylamino)propan-2-yl)oxy)-7-(3-hydroxynaphthalen-1-yl)-5,6,7,8-tetrahydropyrido[3,4-d]pyrimidin-4-yl)piperazin-1-yl)prop-2-en-1-one], the IC50 lay within 0.1 to 1000 nM.
